Data reported in paper PMC9065035, “Structural basis for the synthesis of the core 1 structure by C1GalT1” (Nature Communications, 2022).
Several values for one entry are separate records, joined by “and”; a condition that tells them apart may be missing. Equal values may be shown once. Read-outs that look alike come from different tables or passages of the source. Peptide text beside a SMILES is read from it. * marks the point of attachment. αGalNAc = CC(=O)N[C@@H]1[C@@H](O)[C@@H](O)[C@@H](CO)O[C@@H]1*

Assays:
[1] = biological target: T1, DmC1GalT1^T43-Q388 (Drosophila melanogaster, UniProt Q7K237); assay: UDP-Glo glycosylation kinetics of DmC1GalT1 T43-Q388; settings: for Km: read-out: Km app; for kcat app/Km app (catalytic efficiency): ± standard error
T1 sequence (Q7K237 43-388): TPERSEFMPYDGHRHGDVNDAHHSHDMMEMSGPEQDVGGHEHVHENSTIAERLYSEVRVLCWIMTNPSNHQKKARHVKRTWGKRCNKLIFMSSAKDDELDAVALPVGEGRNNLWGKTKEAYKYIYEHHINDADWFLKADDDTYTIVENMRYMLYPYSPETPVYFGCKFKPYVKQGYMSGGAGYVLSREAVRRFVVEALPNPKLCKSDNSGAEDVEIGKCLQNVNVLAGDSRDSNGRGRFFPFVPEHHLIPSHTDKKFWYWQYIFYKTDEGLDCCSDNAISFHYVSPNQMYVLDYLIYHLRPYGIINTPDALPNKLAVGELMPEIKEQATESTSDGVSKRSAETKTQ

[2] = biological target: T1, DmC1GalT1^T43-Q388; assay: STD NMR experiments; type: binding; design: made in house; settings: for STD response: presence of UDP ([…]) and 150 µM MnCl2, 20 µM enzyme, 710 µM ligand
Method: STD NMR experiments were performed using a 1:35 molar ratio, defined by 20 μM DmC1GalT1^T43-Q388 and 710 μM ligands (α-O-methyl-GalNAc, and (glyco)peptides), and 25 mM Tris(D11)-DCl buffer, pD 7.5, with 150 mM NaCl and 150 µM MnCl2 in D2O. […] In the presence of 150 µM MnCl2, strong paramagnetic relaxation enhancements are observed for UDP, which prevents the observation of UDP proton signals in the NMR spectra. […] STD NMR spectra (stddiffesgp pulse sequence from Bruker pulse program library) were acquired with 1728 scans and 64 K data points, in a spectral window of 12335.53 Hz centered at 2818 Hz. Selective saturation (on resonance) was performed by irradiating at 7 and/or −0.5 ppm (depending if the ligand contains or not aromatic residues) using a series of 40 Eburp2.1000-shaped (from Bruker shaped pulses library) 90° pulses (50 ms) for a total saturation time of 2 s, and a relaxation delay of 4 s. For the reference spectrum (off resonance), the samples were irradiated at 100 ppm. Proper control experiments were performed for each ligand in the absence of protein and residual STD signals of the methyl groups of Ala/Thr were observed. […] Protein control experiments were also accomplished using DmC1GalT1^T43-Q388 in absence of a ligand and also subtracted from STD experiment. The STD spectrum (ISTD) was obtained by subtracting the on-resonance spectrum (Ion) to the off-resonance spectrum (Ioff). The % of STD (ISTD/Ioff × 100) was estimated by comparing the intensity of the signals in the STD spectrum (ISTD) with the signal intensities of the reference spectrum (Ioff). The STD amplification factor (STDAF) was also estimated by multiplying the % STD values by the ligand excess, which in the case of our experiments was 35 for every ligand. To determine the STD-derived epitope map the relative % of STD were calculated by setting to 100% the STD signal of the proton with the highest STD intensity and calculating the others accordingly (Supplementary Tables 2–4). Some protons were not able to be assessed with accuracy due to the use of water suppression or low signal/noise ratio and display a blue circle in the STD-derived epitope maps. Moreover, the resonances overlapped on the ^1H-NMR spectrum were considered in STD estimation and are labelled as *.

[3] = biological target: T1, DmC1GalT1^T43-Q388; assay: Isothermal titration calorimetry (ITC); type: binding; design: made in house
Method: ITC was used to characterize the interaction of DmC1GalT1^T43-Q388 with UDP, APDT*RP with and without UDP, APDTRP with UDP, and P4/P7 with and without UDP. All experiments were carried out in an Auto-iTC200 (Microcal, GE Healthcare) at 20 °C. The titration of DmC1GalT1^T43-Q388 with UDP was carried out at 100 μM of the enzyme with 800 μM UDP in 25 mM TRIS pH 7.5, 150 mM NaCl and 1 mM MnCl2. The titrations with APDT*RP and P4/P7 in the absence of UDP were carried out at 60 μM of the enzyme with 2 mM P4/P7 in 25 mM TRIS pH 7.5, 150 mM NaCl and 1 mM MnCl2. To determine the Kds for APDT*RP, APDTRP and P4/P7 under an excess of UDP, the experiments were made in 25 mM TRIS pH 7.5, 150 mM NaCl, 1 mM UDP and 1 mM MnCl2. The concentration of the enzyme was 60 μM for the titrations of APDT*RP and APDTRP and 50 μM for the titration with P4/P7. The concentration of the (glyco)peptides was 2 mM in all the ITC experiments. The experiments were performed in duplicate. Data integration, correction and analysis were carried out in Origin 7 (Microcal). The data were fit to a one-site equilibrium-binding model. Stoichiometry (n) of binding in all cases was ~1:1 except for UDP whose n = 0.4.

[4] = Activity of DmC1GalT1 mutants (UDP-Glo); type: biochemical, Drosophila melanogaster; settings: 500 µM UDP-Gal, 500 µM APDT*RP
Text: The DNA sequence encoding amino acid residues of the DmC1GalT1 (aa T43-Q388) was codon optimized and synthesized by GenScript (USA) for expression in HEK293 cells (GIBCO). The construct, containing at the 5′-end a recognition sequence for AgeI, and at the 3′-end a recognition sequence for KpnI, was cloned into a pHLSec plasmid that contained a sequence encoding a 6xHis tag at the 3′-end followed by a stop codon, rendering the vector pHLSec-DmC1GalT1-6His. The cloning of the construct into pHLSec was performed by GenScript. All mutants in DmC1GalT1 (R152A, Y213A, Y218A, D255A, W300A and Y325A) were generated following a standard site-directed mutagenesis protocol by GenScript using the vector pHLSec-DmC1GALT1-6His. pHLSec-DmC1GalT1-6His and all the plasmids encoding for the different mutants were transfected into HEK293 cell line as described below. For DNA amplification, all plasmids were transformed in E. coli DH5α cells and extracted with PureLink™ Expi Endotoxin-Free Giga Plasmid Purification Kit (Invitrogen) according to the manufacturer’s instructions. Cells were grown in suspension in a humidified 37 °C and 8% CO2 incubator with rotation at 125 rpm. Transfection was performed at a cell density of 2.5 × 10^6 cell/mL in fresh media F17 serum-free media (Gibco) with 2% Glutamax and 0.1% Kolliphor® P 188. For each 150 mL of culture, 450 μg of the plasmid (1 μg/μL) was mixed with 135 μL of sterilized 1.5 M NaCl. This mixture was added to each 150 mL cell culture flask and incubated for 5 min in the incubator. […] Cells were diluted 1:1 with pre-warmed media supplemented with valproic acid 24 h post-transfection to a final concentration of 2.2 mM. Then, cells were harvested 6 days post-transfection by spinning down at 300 × g for 5 min, after which the supernatants were collected and centrifuged at 4000 × g for 15 min. Supernatant was dialyzed against buffer A and loaded into a His-Trap Column (GE Healthcare). Protein was eluted with an imidazol gradient in buffer A from 10 mM up to 400 mM. Buffer exchange to buffer C was carried out using a HiPrep 26/10 Desalting Column (GE Healthcare). The isolated DmC1GalT1-His and its mutants were then loaded in HiLoad 26/60 Superdex 75 Colum (GE Healthcare), previously equilibrated with buffer C.

[5] = acceptor varied, 500 µM UDP-Gal, 500 nM enzyme, pH 7.5, 30 min 37 °C, Michaelis–Menten fit ± standard error, n = 2
[6] = acceptor substrate varied (P1–P7 12.5–500 µM; APDT*RP/APDS*RP 12.5–1000 µM; α-O-methyl-GalNAc up to 2 mM), 500 µM UDP-Gal, 500 nM enzyme, 25 mM Tris pH 7.5, 150 mM NaCl, 50 µM MnCl2, 1 mg/ml BSA, 30 min 37 °C, Michaelis–Menten fit ± standard error, n = 2
[7] = Kd, absence of UDP, 2 mM glycopeptide, 60 µM enzyme, 25 mM TRIS pH 7.5, 150 mM NaCl, 1 mM MnCl2, 20 °C, one-site fit ± fit error, n = 2
[8] = acceptor varied, 500 µM UDP-Gal, 500 nM enzyme, pH 7.5, 30 min 37 °C, n = 2
[9] = Kd, excess UDP (1 mM UDP, 1 mM MnCl2), 2 mM (glyco)peptide, 50–60 µM enzyme, 25 mM TRIS pH 7.5, 150 mM NaCl, 20 °C, one-site fit ± fit error, n = 2
[10] = excess UDP (1 mM), 1 mM MnCl2, 20 °C
[11] = UDP titration, 1 mM MnCl2, 20 °C

## CO[C@H]1O[C@H](CO)[C@H](O)[C@H](O)[C@H]1NC(C)=O [α-O-methyl-GalNAc]
[1]; 500 µM UDP-Gal
  activity as acceptor substrate: kinetic parameters could not be determined
[1]; [5]
  Vmax app: 548.9 nmol/min/mg
[1]; at a saturating concentration of the glycopeptides (~500 µM)
  initial activity relative to that achieved with APDT*RP: half
[1]; [6]
  Km: 10.3 mM
[1]; up to 2 mM substrate
  saturation of the enzyme: did not reach saturation up to 2 mM
[2]; on resonance 7 ppm
  STDAF, CH3 (NHAc) GalNAc: 20.0
  STDAF, H2 GalNAc: 45.0
  STDAF, H3 GalNAc: 24.9
  STDAF, H4 GalNAc: 27.9
  STDAF, H5-GalNAc: 25.8
  STDAF, H6-GalNAc: 29.5
  STDAF, OMe: 16.6
  relative % STD, CH3 (NHAc) GalNAc: 44%
  relative % STD, H3 GalNAc: 55%
  relative % STD, H4 GalNAc: 62%
  relative % STD, H5-GalNAc: 57%
  relative % STD, H6-GalNAc: 66%
  relative % STD, OMe: 37%
[2]; on resonance -0.5 ppm
  STDAF, CH3 (NHAc) GalNAc: 18.9
  STDAF, H3 GalNAc: 20.0
  STDAF, H4 GalNAc: 28.7
  STDAF, H6-GalNAc: 23.6
  STDAF, OMe: 17.6
  relative % STD, CH3 (NHAc) GalNAc: 61%
  relative % STD, H3 GalNAc: 65%
  relative % STD, H4 GalNAc: 93%
  relative % STD, H6-GalNAc: 77%
  relative % STD, OMe: 57%
[2]; on resonance -0.5 ppm, […] UDP, 150 µM MnCl2, 298 K
  STDAF, H2 GalNAc: 30.7
[2]
  STD response: clearly presented STD enhancements

## CC(=O)N[C@H]1[C@@H](O[C@H](C)[C@H](NC(=O)[C@H](C)NC(=O)[C@H](C)NC(=O)[C@@H]2CCCN2)C(=O)NCC(=O)N2CCC[C@H]2C(=O)N[C@@H](Cc2ccc(O)cc2)C(N)=O)O[C@H](CO)[C@H](O)[C@@H]1O [P4] (H-PAAT(αGalNAc)GPY-NH2)
[3]; [7]
  Kd: 41 µM
[1]; [8]
  kcat app/Km app (catalytic efficiency): 1130 ± 100 M⁻¹ s⁻¹ and 1127 M⁻¹ s⁻¹

## R152A: DmC1GalT1 Ala mutant of Arg152
[4]
  decrease in activity with respect to the WT: 15 fold

## Y213A: DmC1GalT1 Ala mutant of Tyr213
[4]
  decrease in activity with respect to the WT: 25 fold

## CC(=O)N[C@H]1[C@@H](O[C@H](C)[C@H](NC(=O)[C@H](CC(=O)O)NC(=O)[C@@H]2CCCN2C(=O)[C@H](C)N)C(=O)N[C@@H](CCCNC(=N)N)C(=O)N2CCC[C@H]2C(N)=O)O[C@H](CO)[C@H](O)[C@@H]1O [APDT*RP]
[3]; [9]
  Kd: 173 µM
[3]; absence of UDP, 2 mM glycopeptide, 60 µM enzyme, 25 mM TRIS pH 7.5, 150 mM NaCl, 1 mM MnCl2, 20 °C, one-site fit ± fit error, n = 2
  Kd: Not measurable under our conditions
[1]; [8]
  kcat app/Km app (catalytic efficiency): 300 ± 67 M⁻¹ s⁻¹ and 301.5 M⁻¹ s⁻¹

## W300A: DmC1GalT1 Ala mutant of Trp300
[4]
  activity of the mutant: inactive

## APDTRP
[3]; excess UDP (1 mM UDP, 1 mM MnCl2), 2 mM (glyco)peptide, 50–60 µM enzyme, 25 mM TRIS pH 7.5, 150 mM NaCl, 20 °C, one-site fit ± fit error, n = 2
  Kd: Not measurable under our conditions
[3]; [10]
  -TΔS: Not measurable under our conditions
  n (stoichiometry of binding): Not measurable under our conditions
  ΔG: Not measurable under our conditions
  ΔH: Not measurable under our conditions
[3]; presence of an excess of UDP
  binding by ITC: no binding
[1]; 500 µM UDP-Gal
  activity as acceptor substrate: inactive
[1]; [6]
  Km app: not active
  Km: ~0.05 mM
[1]; [5]
  kcat app: not active
[1]; [8]
  kcat app/Km app (catalytic efficiency): not active
[2]
  STD response: did not display STD response

## O=c1ccn([C@@H]2O[C@H](COP(=O)(O)OP(=O)(O)O)[C@@H](O)[C@H]2O)c(=O)[nH]1 [UDP]
[3]
  Kd: 18.4 µM
[3]; ITC, relative to APDT*RP
  binding, fold stronger than binding of APDT*RP: ~ 9.5 fold
[3]; [11]
  n (stoichiometry of binding): 0.4
  ΔH: -4.264 ± 0.471 kcal/mol

## Y325A: DmC1GalT1 Ala mutant of Tyr325
[4]
  decrease in activity with respect to the WT: 25 fold

## CC(=O)N[C@H]1[C@@H](O[C@H](C)[C@H](NC(=O)[C@H](CC(=O)O)NC(=O)[C@H](C)NC(=O)[C@@H](N)Cc2ccc(O)cc2)C(=O)NCC(=O)N2CCC[C@H]2C(=O)N[C@@H](Cc2ccccc2)C(N)=O)O[C@H](CO)[C@H](O)[C@@H]1O [P7] (H-YADT(αGalNAc)GPF-NH2)
[3]; [7]
  Kd: 37.1 µM
[3]; [9]
  Kd: 60 µM
[1]; [8]
  kcat app/Km app (catalytic efficiency): 478.8 M⁻¹ s⁻¹

## Y218A: DmC1GalT1 Ala mutant of Tyr218
[4]
  activity of the mutant: inactive
